Data reported in patent publication US8722849B2, “Polypeptides” (Novo Nordisk A/S, priority 2011, dated 2014).
pEC50: −log10 of the molar value. Converted amounts (≈) assume the structure as drawn. Like-named read-outs stand apart in the source and are kept apart here. Starred links: 1 amine or outer side, 2 acyl side, 3 side chain; linkers in the order of their positions; H or OH if unused. Positions of bridges follow the written chain, without caps; N, C: chain ends. Residues, ends and D or L forms follow the SMILES beside them. *: point of attachment. C20 diacid = O=C(O)CCCCCCCCCCCCCCCCCCC(=O)*; γGlu = O=C(O)[C@H](CCC(=O)[*:2])N[*:1]

Tests used:
[1] = target: T1, human amylin receptor (amylin 3(a) receptor: human calcitonin receptor + RAMP-3) (Homo sapiens, UniProt O60896+P30988); test: Assay (II)a functional CRE-luciferase assay, human amylin receptor; format: cell-based; conditions: Table 2; BHK amylin 3(a)-receptor/CRE-luc cells
T1 construct: expressed in transfected cells; host or cells: BHK570
T1 sequence (P30988 25-474): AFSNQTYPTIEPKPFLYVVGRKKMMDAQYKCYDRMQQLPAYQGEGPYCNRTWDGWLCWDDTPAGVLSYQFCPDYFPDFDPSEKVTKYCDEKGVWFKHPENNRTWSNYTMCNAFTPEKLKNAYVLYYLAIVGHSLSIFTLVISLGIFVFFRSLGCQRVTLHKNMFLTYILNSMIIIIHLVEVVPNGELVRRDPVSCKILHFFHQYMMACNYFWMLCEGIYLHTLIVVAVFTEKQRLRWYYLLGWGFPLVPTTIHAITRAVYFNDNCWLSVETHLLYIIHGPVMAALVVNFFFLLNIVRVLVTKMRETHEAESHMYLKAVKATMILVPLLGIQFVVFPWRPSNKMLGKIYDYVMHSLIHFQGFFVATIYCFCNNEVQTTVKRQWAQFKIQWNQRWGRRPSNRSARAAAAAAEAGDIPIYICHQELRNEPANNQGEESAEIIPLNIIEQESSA
T1 sequence (O60896 24-148 partner): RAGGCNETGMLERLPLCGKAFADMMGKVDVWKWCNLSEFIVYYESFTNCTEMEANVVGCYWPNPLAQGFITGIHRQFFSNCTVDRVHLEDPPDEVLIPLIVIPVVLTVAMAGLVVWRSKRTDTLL

[2] = target: T2, human calcitonin receptor (Homo sapiens, UniProt P30988); test: Assay (II)a functional CRE-luciferase assay, human calcitonin receptor; format: cell-based; conditions: Table 7; human calcitonin (CTa) receptor
T2 construct: expressed in transfected cells; host or cells: BHK570
T2 sequence (P30988 25-474): T1 sequence (P30988 25-474)

[3] = Assay (III) ThT fibrillation assay for physical stability; format: physicochemical; conditions: ThT fibrillation assay
In short: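 Freshly prepared formulations, pH-adjusted, with 1 μM ThT; four or eight replicates incubated at 37 °C under 960 rpm orbital shaking. Fluorescence (ex 444/em 485 nm) read every 20 min; […]. Peptide concentration measured by RP-HPLC before and after the run.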

[4] = Assay (IV) determination of solubility; format: physicochemical
In short: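 Stock ~500 nmol/ml in water; 1:1 with 100 mM buffer, pH 3.0–8.0 (glycylglycine ≤5.0, bistrispropane ≥6.0); 18 h RT; spin; HPLC quantitation of soluble polypeptide.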

[5] = bistrispropane buffer, pH 6, pH 6.0, read-out: Solubility pH 6.0
[6] = bistrispropane buffer, pH 7, pH 7.0, read-out: Solubility pH 7.0
[7] = bistrispropane buffer, pH 7.5, pH 7.5, read-out: Solubility pH 7.5
[8] = bistrispropane buffer, pH 8, pH 8.0, read-out: Solubility pH 8.0
[9] = glycylglycine buffer, pH 3, pH 3.0, read-out: Solubility pH 3.0
[10] = glycylglycine buffer, pH 4, pH 4.0, 18 hours at room temperature, Table 2, read-out: Solubility pH 4.0
[11] = glycylglycine buffer, pH 4, pH 4.0, read-out: Solubility pH 4.0
[12] = glycylglycine buffer, pH 5, pH 5.0, read-out: Solubility pH 5.0
[13] = bistrispropane buffer, pH 6.5, pH 6.5, read-out: Solubility pH 6.5
[14] = bistrispropane buffer, pH 7, pH 7.0, 18 hours at room temperature, Table 3, read-out: Solubility pH 7.0

| SMILES | pEC50 [1] | pEC50 [2] | ThT pH 4.0 lag time (h) [3] [h] | solubility at 18 h [4, 5] [µM] | solubility at 18 h [4, 6] [µM] | solubility at 18 h [4, 7] [µM] | solubility at 18 h [4, 8] [µM] | solubility at 18 h [4, 9] [µM] | solubility at 18 h [4, 10] [µM] | solubility at 18 h [4, 11] [µM] | solubility at 18 h [4, 12] [µM] | solubility at 18 h [4, 13] [µM] | solubility at 18 h [4, 14] [µM] |
| --- | --- | --- | --- | --- | --- | --- | --- | --- | --- | --- | --- | --- | --- |
| CC[C@H](C)[C@H](NC(=O)[C@@H]1CCCN1C(=O)CNC(=O)[C@H](Cc1ccccc1)NC(=O)[C@H](CC(N)=O)NC(=O)[C@H](CC(N)=O)NC(=O)[C@H](CO)NC(=O)[C@H](CO)NC(=O)[C@H](Cc1c[nH]cn1)NC(=O)[C@@H](NC(=O)[C@H](CC(C)C)NC(=O)[C@H](Cc1ccccc1)NC(=O)[C@H](CCC(=O)O)NC(=O)[C@H](C)NC(=O)[C@H](CC(C)C)NC(=O)[C@H](CCCNC(=N)N)NC(=O)[C@H](CCC(N)=O)NC(=O)[C@@H](NC(=O)[C@H](C)NC(=O)[C@@H]1CSSC[C@H](NC(=O)[C@H](Cc2c[nH]cn2)NC(=O)[C@H](Cc2c[nH]cn2)NC(=O)[C@H](Cc2c[nH]cn2)NC(=O)CC[C@H](NC(=O)CCCCCCCCCCCCCCCCCCC(=O)O)C(=O)O)C(=O)N[C@@H](CC(N)=O)C(=O)N[C@@H]([C@@H](C)O)C(=O)N[C@@H](C)C(=O)N[C@@H]([C@@H](C)O)C(=O)N1)[C@@H](C)O)C(C)C)C(=O)N[C@@H](CC(C)C)C(=O)N1CCC[C@H]1C(=O)N1CCC[C@H]1C(=O)N[C@H](C(=O)N[C@@H](CC(N)=O)C(=O)N[C@H](C(=O)NCC(=O)N[C@@H](CO)C(=O)N[C@@H](CC(N)=O)C(=O)N[C@H](C(=O)N[C@@H](Cc1ccc(O)cc1)C(N)=O)[C@@H](C)O)C(C)C)[C@@H](C)O [Example 20, N-alpha-[(S)-4-Carboxy-4-(19-carboxynonadecanoylamino)butyryl]-His-His-[His1,Glu14]-pramlintide] ({C20 diacid-γGlu}-HHHCNTATCATQRLAEFLVHSSNNFGPILPPTNVGSNTY-NH2; disulfide 4-9 (inferred); C-terminus assumed) | 9.82 | 9.13 | 1.7 | 6 (≈ 28.2 µg/mL) | 1 (≈ 4.7 µg/mL) | 13 (≈ 61.1 µg/mL) | 73 (≈ 343 µg/mL) | > 200 | > 200 | > 200 | > 200 |  |  |
| CC[C@H](C)[C@H](NC(=O)[C@@H]1CCCN1C(=O)CNC(=O)[C@H](Cc1ccccc1)NC(=O)[C@H](CC(N)=O)NC(=O)[C@H](CC(N)=O)NC(=O)[C@H](CO)NC(=O)[C@H](CO)NC(=O)[C@H](Cc1c[nH]cn1)NC(=O)[C@H](Cc1c[nH]cn1)NC(=O)[C@H](CC(C)C)NC(=O)[C@H](Cc1ccccc1)NC(=O)[C@H](CCC(=O)O)NC(=O)[C@H](C)NC(=O)[C@H](CC(C)C)NC(=O)[C@H](CCCNC(=N)N)NC(=O)[C@H](CCC(N)=O)NC(=O)[C@@H](NC(=O)[C@H](C)NC(=O)[C@@H]1CSSC[C@H](NC(=O)[C@H](Cc2c[nH]cn2)NC(=O)[C@H](Cc2c[nH]cn2)NC(=O)[C@H](Cc2c[nH]cn2)NC(=O)CC[C@H](NC(=O)CCCCCCCCCCCCCCCCCCC(=O)O)C(=O)O)C(=O)N[C@@H](Cc2c[nH]cn2)C(=O)N[C@@H]([C@@H](C)O)C(=O)N[C@@H](C)C(=O)N[C@@H]([C@@H](C)O)C(=O)N1)[C@@H](C)O)C(=O)N[C@@H](CC(C)C)C(=O)N1CCC[C@H]1C(=O)N[C@@H](Cc1c[nH]cn1)C(=O)N[C@H](C(=O)N[C@@H](CC(N)=O)C(=O)N[C@H](C(=O)NCC(=O)N[C@@H](CO)C(=O)N[C@@H](Cc1c[nH]cn1)C(=O)N[C@H](C(=O)N[C@@H](Cc1ccc(O)cc1)C(N)=O)[C@@H](C)O)C(C)C)[C@@H](C)O [Example 33, N-alpha-[(S)-4-Carboxy-4-(19-carboxynonadecanoylamino)butyryl]-His-His-[His1,His3,Glu14,His17,His29,His35]-pramlintide] ({C20 diacid-γGlu}-HHHCHTATCATQRLAEFLHHSSNNFGPILPHTNVGSHTY-NH2; disulfide 4-9 (inferred); C-terminus assumed) | 8.99 | 9.32 | 10 | > 200 |  |  | 16 (≈ 77.2 µg/mL) | > 200 | > 200 | > 200 | > 200 | 17 (≈ 82 µg/mL) |  |
| CC[C@H](C)[C@H](NC(=O)[C@@H]1CCCN1C(=O)CNC(=O)[C@H](Cc1ccccc1)NC(=O)[C@H](CC(N)=O)NC(=O)[C@H](CC(N)=O)NC(=O)[C@H](CO)NC(=O)[C@H](CO)NC(=O)[C@H](Cc1c[nH]cn1)NC(=O)[C@H](Cc1c[nH]cn1)NC(=O)[C@H](CC(C)C)NC(=O)[C@H](Cc1ccccc1)NC(=O)[C@H](CCC(=O)O)NC(=O)[C@H](C)NC(=O)[C@H](CC(C)C)NC(=O)[C@H](CCCNC(=N)N)NC(=O)[C@H](CCC(=O)O)NC(=O)[C@@H](NC(=O)[C@H](C)NC(=O)[C@@H]1CSSC[C@H](NC(=O)[C@H](CCCCN)NC(=O)CC[C@H](NC(=O)CCCCCCCCCCCCCCCCCCC(=O)O)C(=O)O)C(=O)N[C@@H](CC(N)=O)C(=O)N[C@@H]([C@@H](C)O)C(=O)N[C@@H](C)C(=O)N[C@@H]([C@@H](C)O)C(=O)N1)[C@@H](C)O)C(=O)N[C@@H](CC(C)C)C(=O)N1CCC[C@H]1C(=O)N1CCC[C@H]1C(=O)N[C@H](C(=O)N[C@@H](CC(N)=O)C(=O)N[C@H](C(=O)NCC(=O)N[C@@H](CO)C(=O)N[C@@H](CC(N)=O)C(=O)N[C@H](C(=O)N[C@@H](Cc1ccc(O)cc1)C(N)=O)[C@@H](C)O)C(C)C)[C@@H](C)O [Example 54, N-alpha-[(S)-4-Carboxy-4-(19-carboxynonadecanoylamino)butyryl]-[Glu10,Glu14,His17]-pramlintide] ({C20 diacid-γGlu}-KCNTATCATERLAEFLHHSSNNFGPILPPTNVGSNTY-NH2; disulfide 2-7 (inferred)) | 9.89 | 9.70 | 23 | 100 (≈ 446 µg/mL) | > 200 | > 200 | > 200 | > 200 | > 200 | > 200 | > 200 | 150 (≈ 669 µg/mL) | > 200 |
| CC[C@H](C)[C@H](NC(=O)[C@@H]1CCCN1C(=O)CNC(=O)[C@H](Cc1ccccc1)NC(=O)[C@H](CC(N)=O)NC(=O)[C@H](CC(N)=O)NC(=O)[C@H](CO)NC(=O)[C@H](CO)NC(=O)[C@H](Cc1c[nH]cn1)NC(=O)[C@@H](NC(=O)[C@H](CC(C)C)NC(=O)[C@H](Cc1ccccc1)NC(=O)[C@H](CCC(=O)O)NC(=O)[C@H](C)NC(=O)[C@H](CC(C)C)NC(=O)[C@H](CCCNC(=N)N)NC(=O)[C@H](CCC(N)=O)NC(=O)[C@@H](NC(=O)[C@H](C)NC(=O)[C@@H]1CSSC[C@H](NC(=O)[C@H](Cc2c[nH]cn2)NC(=O)CC[C@H](NC(=O)CCCCCCCCCCCCCCCCCCC(=O)O)C(=O)O)C(=O)N[C@@H](CC(N)=O)C(=O)N[C@@H]([C@@H](C)O)C(=O)N[C@@H](C)C(=O)N[C@@H]([C@@H](C)O)C(=O)N1)[C@@H](C)O)C(C)C)C(=O)N[C@@H](CC(C)C)C(=O)N1CCC[C@H]1C(=O)N1CCC[C@H]1C(=O)N[C@H](C(=O)N[C@@H](CC(N)=O)C(=O)N[C@H](C(=O)NCC(=O)N[C@@H](CO)C(=O)N[C@@H](CC(N)=O)C(=O)N[C@H](C(=O)N1CCC[C@H]1C(N)=O)[C@@H](C)O)C(C)C)[C@@H](C)O [Example 109, N-alpha-[(S)-4-Carboxy-4-(19-carboxynonadecanoylamino)butyryl]-[His1,Glu14,Pro37]-pramlintide] ({C20 diacid-γGlu}-HCNTATCATQRLAEFLVHSSNNFGPILPPTNVGSNTP-NH2; disulfide 2-7 (inferred); C-terminus assumed) | 10.07 | 10.14 | 6.3 | > 200 | > 200 | > 200 | > 200 | > 200 | > 200 | > 200 | > 200 | > 200 | > 200 |
